In patent US11149033B2, “Heteroaryl compound, enantiomer, diastereomer or pharmaceutically acceptable salt thereof, and antiviral composition containing same as active ingredient” (priority 2016, dated 2021):
Read-outs that look alike come from different tables or passages of the source.

Key:
[1] = test system: A/California/07/2009 (H1N1); assay: Antiviral activity (drug efficacy evaluation by concentration) against A/California/07/2009 (H1N1); assay type: cell-based, A type influenza virus; conditions: Influenza A virus
A/Perth/16/2009 (H3N2) = assay: Antiviral activity (drug efficacy evaluation by concentration) against A/Perth/16/2009 (H3N2); assay type: cell-based, A type influenza virus; conditions: Influenza A virus
B/Florida/04/2006 = assay: Antiviral activity (drug efficacy evaluation by concentration) against B/Florida/04/2006; assay type: cell-based, B type influenza virus
[2] = H1N1, A/California/07/2009 (H1N1), read-out: EC50 A/California/07/2009 (H1N1)
[3] = CC50 B/Florida/04/2006, cytotoxicity in the B/Florida/04/2006 assay
[4] = H3N2, A/Perth/16/2009 (H3N2), read-out: EC50 A/Perth/16/2009 (H3N2)
[5] = read-out: EC50 B/Florida/04/2006, B/Florida/04/2006
[6] = CC50, third EC50/CC50 column pair (c7), beside the EC50 of c6

SMILES	EC50 [1, 2] [µM]	CC50 (in vitro; [3]) [µM]	EC50 (A/Perth/16/2009 (H3N2); [4]) [µM]	EC50 (B/Florida/04/2006; [5]) [µM]	EC50 ([1]; H1N1, read-out: EC50) [µM]	CC50 (in vitro; CC50, beside the EC50 of c2) [µM]	CC50 (in vitro; CC50, beside the EC50 of c4) [µM]	CC50 (in vitro; [6]) [µM]	EC50 (A/Perth/16/2009 (H3N2); H3N2, read-out: EC50) [µM]	EC50 (B/Florida/04/2006) [µM]
Cc1nn(Cc2nnc(SC(c3ccccc3)c3ccccc3)o2)c(C)c1Br [Compound 25, 2-(benzhydrylthio)-5-((4-bromo-3,5-dimethyl-1H-pyrazol-1-yl)methyl)-1,3,4-oxadiazole]	2.5	9.4	2	5.18	–	–	–	–	–	–
Brc1ccc(OCc2nnc(SCc3ccccc3-c3ccccc3)o2)cc1 [Compound 58, 2-(([1,1′-biphenyl]-2-ylmethyl)thio)-5-((4-bromophenoxy)methyl)-1,3,4-oxadiazole]	> 50	> 50	44.3	> 50	–	–	–	–	–	–
Cc1nn(Cc2nnc(S(=O)(=O)Cc3ccccc3-c3ccccc3)o2)c(C)c1Br [Compound 96, 2-(([1,1′-biphenyl]-2-ylmethyl)sulfonyl)-5-((4-bromo-3,5-dimethyl-1H-pyrazol-1-yl)methyl)-1,3,4-oxadiazole]	–	–	–	–	1.3	> 50	> 50	> 50	1.3	1.03
CC(C)c1ccccc1OCc1nnc(Cc2ccc(Br)cc2)o1 [Compound 115, 2-(4-bromobenzyl)-5-((2-isopropylphenoxy)methyl)-1,3,4-oxadiazole]	–	–	–	–	44.9	> 50	> 50	> 50	38.2	45.1
Cc1ccc(/C=C/c2nnc(Cc3cccc(Br)c3)o2)c(Cl)c1 [Compound 195, 2-(3-bromobenzyl)-5-(2-chloro-4-methylstyryl)-1,3,4-oxadiazole]	–	–	–	–	6.14	> 50	> 50	> 50	5.79	5.74
CC(C)c1ccccc1/C=C/c1nnc(C(C)c2ccccc2)o1 (centres unmarked) [Compound 147, 2-(2-isopropylstyryl)-5-(1-phenylethyl)-1,3,4-oxadiazole]	–	–	–	–	6	> 50	> 50	> 50	6	4.4
Cc1nn(Cc2nnc(Cc3cccc(Cl)c3)o2)c(C)c1Br [Compound 46, 2-((4-bromo-3,5-dimethyl-1H-pyrazol-1-yl)methyl)-5-(3-chlorobenzyl)-1,3,4-oxadiazole]	24.3	> 50	21.8	27.5	–	–	–	–	–	–
Cc1nn(Cc2nnc(/C=C/c3ccccc3C(C)C)o2)c(C)c1Br [Compound 50, (E)-2-((4-bromo-3,5-dimethyl-1H-pyrazol-1-yl)methyl)-5-(2-isopropylstyryl)-1,3,4-oxadiazole]	18.7	> 50	11.4	24.5	–	–	–	–	–	–
CC(C)c1ccc(Cc2nnc(/C=C/c3ccccc3C(C)C)o2)cc1 [Compound 133, 2-(4-isopropylbenzyl)-5-(2-isopropylstyryl)-1,3,4-oxadiazole]	–	–	–	–	2.66	> 50	> 50	> 50	1.4	1.97
CC(C)c1ccccc1/C=C/c1nnc(Cc2ccc(Br)c(F)c2)o1 [Compound 164, 2-(4-bromo-3-fluorobenzyl)-5-(2-isopropylstyryl)-1,3,4-oxadiazole]	–	–	–	–	5.16	> 50	> 50	> 50	4.32	8.35
CC(C)c1ccccc1CCc1nnc(Cc2cccc(Br)c2)o1 [Compound 101, 2-(3-bromobenzyl)-5-(2-isopropylphenethyl)-1,3,4-oxadiazole]	–	–	–	–	45.3	> 50	> 50	> 50	45.5	36.5
Cc1nc2ccccc2n1Cc1nnc(SCc2ccccc2-c2ccccc2)o1 [Compound 41, 2-(([1,1′-biphenyl]-2-ylmethyl)thio)-5-((2-methyl-1H-benzo[d]imidazol-1-yl)methyl)-1,3,4-oxadiazole]	0.69	19.7	0.91	1.21	–	–	–	–	–	–
